Measured values published in the NIST ThermoML archive (doi:10.1016/j.jct.2008.01.010).
“And” between values parts separate entries of the source, which are not always exact repeats. Equal values may be shown once.

Settings: Crystal; for mass density: 298.15 K, 101.33 kPa, Pycnometric method; for vapor or sublimation pressure: Calculated from knudsen effusion weight loss

Oc1nncc2ccccc12 [1(2H)-phthalazinone]
Settings | mass density [kg/m3] | vapor or sublimation pressure
– | 1290 | –
348.12 K | – | 0.0001427 kPa and 0.0001428 kPa and 0.0001398 kPa
350.14 K | – | 0.0001731 kPa and 0.0001683 kPa and 0.0001668 kPa
352.15 K | – | 0.0002116 kPa and 0.0002079 kPa
354.18 K | – | 0.0002587 kPa and 0.0002577 kPa and 0.0002582 kPa
356.2 K | – | 0.0003206 kPa and 0.0003187 kPa and 0.0003134 kPa
358.15 K | – | 0.0003799 kPa and 0.0003853 kPa and 0.0003771 kPa
360.2 K | – | 0.0004783 kPa and 0.0004761 kPa and 0.0004538 kPa
362.14 K | – | 0.0005802 kPa and 0.0005665 kPa and 0.0005564 kPa
364.18 K | – | 0.0006992 kPa and 0.0006815 kPa and 0.000676 kPa
366.14 K | – | 0.0008356 kPa and 0.0008316 kPa and 0.000817 kPa
368.13 K | – | 0.0009681 kPa and 0.001004 kPa and 0.0009903 kPa

O=c1[nH][nH]c(=O)c2ccccc12 [2,3-dihydro-1,4-phthalazinedione]
Settings | mass density [kg/m3] | vapor or sublimation pressure
– | 1390 | –
428.18 K | – | 0.0001501 kPa and 0.00015 kPa and 0.0001468 kPa
430.16 K | – | 0.0001786 kPa and 0.0001816 kPa and 0.0001711 kPa
432.24 K | – | 0.0002109 kPa and 0.000215 kPa and 0.0002114 kPa
434.18 K | – | 0.0002433 kPa and 0.0002441 kPa
436.19 K | – | 0.0002898 kPa and 0.000293 kPa and 0.0002878 kPa
438.26 K | – | 0.0003477 kPa and 0.0003523 kPa and 0.0003443 kPa
440.19 K | – | 0.0004064 kPa and 0.0003929 kPa
442.17 K | – | 0.000473 kPa and 0.000486 kPa
444.26 K | – | 0.0005785 kPa and 0.0005761 kPa
446.19 K | – | 0.0006629 kPa and 0.0006749 kPa and 0.0006616 kPa
448.22 K | – | 0.0007985 kPa and 0.0007997 kPa and 0.0007669 kPa
450.28 K | – | 0.0009283 kPa and 0.0009382 kPa
